Experimental data: US8222244B2, “Staurosporine derivatives as inhibitors of FLT3 receptor tyrosine kinase activity” (Novartis AG, priority 2001, dated 2012)

Molecular target: T1, human Flt-3 (Homo sapiens, UniProt P36888)
T1 construct: expresses the amino acid region amino acids 563-993 of the intra-cytoplasmic kinase domains of human Flt-3; made in house; host or cells: Sf9 insect cells (baculovirus, pFbacG01 donor vector)
T1 sequence (P36888 563-993): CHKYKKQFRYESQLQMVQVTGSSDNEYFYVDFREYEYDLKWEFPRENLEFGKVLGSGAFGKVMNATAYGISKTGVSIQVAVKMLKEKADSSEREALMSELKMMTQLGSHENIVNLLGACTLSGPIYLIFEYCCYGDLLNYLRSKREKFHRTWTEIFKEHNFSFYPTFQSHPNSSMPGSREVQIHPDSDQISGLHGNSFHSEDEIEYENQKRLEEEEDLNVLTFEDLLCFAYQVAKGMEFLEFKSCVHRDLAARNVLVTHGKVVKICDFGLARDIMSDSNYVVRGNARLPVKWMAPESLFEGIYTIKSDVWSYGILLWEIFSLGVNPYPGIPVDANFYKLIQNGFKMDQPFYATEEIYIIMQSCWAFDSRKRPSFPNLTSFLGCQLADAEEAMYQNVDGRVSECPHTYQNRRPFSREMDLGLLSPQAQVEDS
Test: Tyrosine protein kinase assay with purified GST-Flt-3 (33P incorporation)
Type: biochemical
Details: at a 1.0 micromolar concentration
Experimental: ATP into appropriate substrates.
The coding sequences for the cytoplasmic domain of Flt-3 was amplified by PCR from human c-DNA libraries (Clontech). The amplified DNA fragments and the pFbacG01 vector were made compatible for ligation by digestion with BamH1 and Hind III. […] The production of the viruses, the expression of proteins in Sf9 cells and the purification of the GST-fused proteins were performed as following:
(Generation of Bac- to Bac GST-fusion vectors); pFbacG01, pFbacGST2T and pFbacGSTx3 Bac-to-Bac™ donor vectors were generated from pAcG1, pAcG2T and pAcG3X respectively, which facilitate the expression of GST-fusion proteins with the possibility of cleavage with thrombin (pFbacGT2) or factor Xa (pFbacGSTx3) while pFbacG01 expresses no proteolytic cleavage site. These were generated in house by isolation of the DNA fragment containing the gene for GST with the C-terminal protease and restriction sites by restriction enzyme digestion of the relevant PharMingen baculovirus donor vector with EcoRV and EcoRI. This EcoRV/EcoRI fragment was ligated into the pFastBac1 vector which had been restriction digested with BamHI, blunt-ended by Klenow reaction and subsequently digested with EcoRI to generate a blunt-ended/EcoRI vector. (Production of virus); Transfer vectors containing the kinase domains were transfected into the DH10Bac cell line (GIBCO) and plated on selective agar plates. Colonies without insertion of the fusion sequence into the viral genome (carried by the bacteria) are blue. Single white colonies were picked and viral DNA (bacmid) isolated from the bacteria by standard plasmid purification procedures. Sf9 cells or Sf21 cells were then transfected in 25 cm^2 flasks with the viral DNA using Cellfectin reagent. (Determination of small scale protein expression in Sf9 cells); Virus containing media was collected from the transfected cell culture and used for infection to increase its titer. Virus containing media obtained after two rounds of infection was used for large-scale protein expression. For large-scale protein expression 100 cm^2 round tissue culture plates were seeded with 5×10^7 cells/plate and infected with 1 mL of virus-containing media (approx. 5 MOIs). After 3 days the cells were scraped off the plate and centrifuged at 500 rpm for 5 min. Cell pellets from 10-20, 100 cm^2 plates, were resuspended in 50 mL of ice-cold lysis buffer (25 mMTris-HCl, pH7.5, 2 mMEDTA, 1% NP-40, 1 mM DTT, 1 mMP MSF). The cells were stirred on ice for 15 min and then centrifuged at 5000 rpms for 20 min.
ATP 0.1 μCi). […] ATP into appropriate substrates. […] Subsequently, 40 μL of the reaction mixture were transferred onto Immobilon-PVDF membrane (Millipore, Bedford, Mass., USA) previously soaked for 5 min with methanol, rinsed with water, then soaked for 5 min with 0.5% H3PO4 and mounted on vacuum manifold with disconnected vacuum source. After spotting all samples, vacuum was connected and each well rinsed with 200 μL 0.5% H3PO4. Membranes were removed and washed 4× on a shaker with 1.0% H3PO4, once with ethanol. Membranes were counted after drying at ambient temperature, mounting in Packard TopCount 96-well frame, and addition of 10 μL/well of Microscint™ (Packard). […] One unit of protein kinase activity is defined as 1 nmole of ^33P ATP transferred from [γ^33P] ATP to the substrate protein per minute per mg of protein at 37° C.

Flt3 Inhibition (percent inhibition of Flt3 kinase activity) | Compound
66% | 11-[[N-Acetyl-1-O-methyl-4,6-O-(phenylmethylene)-a-normuramoyl]methylamino]-2,3,10,11,12,13-hexahydro-10-methoxy-9-methyl-9,13-epoxy-1H,9H-diindolo[1,2,3-gh:3′,2′,1′-lm]pyrrolo[3,4-j][1,7]benzodiazonin-1-one [149622-43-5]
74% | 11-[[N-Acetyl-1-deoxy-4,6-O-(phenylmethylene)muramoyl]methylamino]-2,3,10,11,12,13-hexahydro-10-methoxy-9-methyl-9,13-epoxy-1H,9H-diindolo[1,2,3-gh:3′,2′,1′-lm]pyrrolo[3,4-j][1,7]benzodiazonin-1-one [149622-49-1]
98% | CO[C@@H]1[C@H](N(C)C(=O)CCC(=O)[O-])C[C@H]2O[C@]1(C)n1c3ccccc3c3c4c(c5c6ccccc6n2c5c31)C(=O)NC4.[Na+] [120685-10-1, [9S-(9a,10b,11b,13a)]-4-[(2,3,10,11,12,13-Hexahydro-10-methoxy-9-methyl-1-oxo-9,13-epoxy-1H,9H-diindolo[1,2,3-gh:3′,2′,1′-lm]pyrrolo[3,4-j][1,7]benzodiazonin-11-yl)methylamino]-4-oxo-butanoic acid, sodium salt]
66% | COC1C(N(C)C(=O)C(F)(F)F)CC2OC1(C)n1c3ccccc3c3c4c(c5c6ccccc6n2c5c31)C(=O)NC4 [120685-12-3, 2,2,2-Trifluoro-N-[(9S,10R,11R,13R)-2,3,10,11,12,13-hexahydro-10-methoxy-9-methyl-1-oxo-9,13-epoxy-1H,9H-diindolo[1,2,3-gh:3′,2′,1′-lm]pyrrolo[3,4-j][1,7]benzodiazonin-11-yl]-N-methyl-acetamide]
74% | COC1C(N(C)C(=O)c2cccc([N+](=O)[O-])c2)CC2OC1(C)n1c3ccccc3c3c4c(c5c6ccccc6n2c5c31)C(=O)NC4 (stereo not drawn) [120685-15-6, (9a,10b,11b,13a)-N-(2,3,10,11,12,13-Hexahydro-10-methoxy-9-methyl-1-oxo-9,13-epoxy-1H,9H-diindolo[1,2,3-gh:3′,2′,1′-lm]pyrrolo[3,4-j][1,7]benzodiazonin-11-yl)-N-methyl-3-nitro-benzamide]
60% | COC1C(N(C)C(=O)c2cccc(F)c2)CC2OC1(C)n1c3ccccc3c3c4c(c5c6ccccc6n2c5c31)C(=O)NC4 (stereo not drawn) [120685-16-7, (9a,10b,11b,13a)-3-Fluoro-N-(2,3,10,11,12,13-hexahydro-10-methoxy-9-methyl-1-oxo-9,13-epoxy-1H,9H-diindolo[1,2,3-gh:3′,2′,1′-lm]pyrrolo[3,4-j][1,7]benzodiazonin-11-yl)-N-methyl-benzamide]
33% | CO[C@@H]1[C@H](N(C)C(=O)OC(C)(C)C)C[C@H]2O[C@]1(C)n1c3ccccc3c3c4c(c5c6ccccc6n2c5c31)C(=O)NC4 [120685-17-8, [9S-(9a,10b,11b,13a)]-(2,3,10,11,12,13-Hexahydro-10-methoxy-9-methyl-1-oxo-9,13-epoxy-1H,9H-diindolo[1,2,3-gh:3′,2′,1′-lm]pyrrolo[3,4-j][1,7]benzodiazonin-11-yl)methyl-carbamic acid, 1,1-dimethylethyl ester]
63% | COC1C(N(C)C(=O)c2cc([N+](=O)[O-])cc([N+](=O)[O-])c2)CC2OC1(C)n1c3ccccc3c3c4c(c5c6ccccc6n2c5c31)C(=O)NC4 (stereo not drawn) [120685-18-9, [9S-(9a,10b,11b,13a)]-N-(2,3,10,11,12,13-Hexahydro-10-methoxy-9-methyl-1-oxo-9,13-epoxy-1H,9H-diindolo[1,2,3-gh:3′,2′,1′-lm]pyrrolo[3,4-j][1,7]benzodiazonin-11-yl)-N-methyl-3,5-dinitro-benzamide]
98% | COC1C(N(C)CC(=O)O)CC2OC1(C)n1c3ccccc3c3c4c(c5c6ccccc6n2c5c31)C(=O)NC4 (stereo not drawn) [120685-22-5, [9S-(9a,10b,11b,13a)]-N-(2,3,10,11,12,13-Hexahydro-10-methoxy-9-methyl-1-oxo-9,13-epoxy-1H,9H-diindolo[1,2,3-gh:3′,2′,1′-lm]pyrrolo[3,4-j][1,7]benzodiazonin-11-yl)-N-methyl-glycine]
100% | CC[N+](C)(C)C1CC2OC(C)(C1OC)n1c3ccccc3c3c4c(c5c6ccccc6n2c5c31)C(=O)NC4.[I-] (stereo not drawn) [120685-28-1, N-Ethyl-[9S-(9a,10b,11b,13a)]-2,3,10,11,12,13-hexahydro-10-methoxy-N,N,9-trimethyl-1-oxo-9,13-epoxy-1H,9H-diindolo[1,2,3-gh:3′,2′,1′-lm]pyrrolo[3,4-j][1,7]benzodiazonin-11-aminium iodide]
55% | COC1C(N(C)C(=O)c2ccc(F)cc2)CC2OC1(C)n1c3ccccc3c3c4c(c5c6ccccc6n2c5c31)C(=O)NC4 (stereo not drawn) [120685-44-1, (9a,10b,11b,13a)-4-Fluoro-N-(2,3,10,11,12,13-hexahydro-10-methoxy-9-methyl-1-oxo-9,13-epoxy-1H,9H-diindolo[1,2,3-gh:3′,2′,1′-lm]pyrrolo[3,4-j][1,7]benzodiazonin-11-yl)-N-methyl-benzamide]

Compound | Flt3 Inhibition (percent inhibition of Flt3 kinase activity)
CNC(=S)N(C)C1CC2OC(C)(C1OC)n1c3ccccc3c3c4c(c5c6ccccc6n2c5c31)C(=O)NC4 (stereo not drawn) [120685-13-4, (9a,10b,11b,13a)-N-(2,3,10,11,12,13-Hexahydro-10-methoxy-9-methyl-1-oxo-9,13-epoxy-1H,9H-diindolo[1,2,3-gh:3′,2′,1′-lm]pyrrolo[3,4-j][1,7]benzodiazonin-11-yl)-N,N′-dimethyl-thiourea] | 91%
COC(=O)CN(C)C1CC2OC(C)(C1OC)n1c3ccccc3c3c4c(c5c6ccccc6n2c5c31)C(=O)NC4 (stereo not drawn) [120685-21-4, [9S-(9a,10b,11b,13a)]-N-(2,3,10,11,12,13-Hexahydro-10-methoxy-9-methyl-1-oxo-9,13-epoxy-1H,9H-diindolo[1,2,3-gh:3′,2′,1′-lm]pyrrolo[3,4-j][1,7]benzodiazonin-11-yl)-N-methyl-glycine, methyl ester] | 82%
COC1C([N+](C)(C)C)CC2OC1(C)n1c3ccccc3c3c4c(c5c6ccccc6n2c5c31)C(=O)NC4.[I-] (stereo not drawn) [120685-26-9, [9S-(9a,10b,11b,13a)]-2,3,10,11,12,13-Hexahydro-10-methoxy-N,N,N,9-tetramethyl-1-oxo-9,13-epoxy-1H,9H-diindolo[1,2,3-gh:3′,2′,1′-lm]pyrrolo[3,4-j][1,7]benzodiazonin-11-aminium iodide] | 97%
C=CCNC(=S)N(C)C1CC2OC(C)(C1OC)n1c3ccccc3c3c4c(c5c6ccccc6n2c5c31)C(=O)NC4 (stereo not drawn) [120685-39-4, (9a,10b,11b,13a)-N-(2,3,10,11,12,13-Hexahydro-10-methoxy-9-methyl-1-oxo-9,13-epoxy-1H,9H-diindolo[1,2,3-gh:3′,2′,1′-lm]pyrrolo[3,4-j][1,7]benzodiazonin-11-yl)-N-methyl-N′-2-propenyl-thiourea] | 93%
